Laboratory results published in PubChem BioAssay (NCI).
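GI50 is the concentration that inhibits growth by half. At the TGI there is no net growth.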

Key:
Assay in all cases: inhibition of tumour cell growth, NCI panel, 384-well format
A498 renal = tested on: A498 renal
MDA-MB-435 melanoma = tested on: MDA-MB-435 melanoma
U251 glioblastoma = tested on: U251 glioblastoma
NCI-H522 lung = tested on: NCI-H522 lung
OVCAR-4 ovarian = tested on: OVCAR-4 ovarian
MOLT-4 leukemia = tested on: MOLT-4 leukemia
TK-10 renal = tested on: TK-10 renal
SK-OV-3 ovarian = tested on: SK-OV-3 ovarian
K-562 leukemia = tested on: K-562 leukemia
UACC-257 melanoma = tested on: UACC-257 melanoma
HCT-15 colon = tested on: HCT-15 colon
SN12C renal = tested on: SN12C renal
SK-MEL-28 melanoma = tested on: SK-MEL-28 melanoma
A549 NSCLC = tested on: A549 NSCLC
LOX IMVI melanoma = tested on: LOX IMVI melanoma
NCI-H322M lung = tested on: NCI-H322M lung
NCI-H460 NSCLC = tested on: NCI-H460 NSCLC
SF-539 CNS = tested on: SF-539 CNS
DU-145 prostate = tested on: DU-145 prostate
HOP-92 NSCLC = tested on: HOP-92 NSCLC
786-0 renal = tested on: 786-0 renal
MALME-3M melanoma = tested on: MALME-3M melanoma
SK-MEL-5 melanoma = tested on: SK-MEL-5 melanoma
MDA-MB-468 breast = tested on: MDA-MB-468 breast
HCT-116 colon = tested on: HCT-116 colon
T-47D breast = tested on: T-47D breast
CCRF-CEM leukemia = tested on: CCRF-CEM leukemia
HCC-2998 colon = tested on: HCC-2998 colon
SNB-19 CNS = tested on: SNB-19 CNS
OVCAR-5 ovarian = tested on: OVCAR-5 ovarian
SF-295 CNS = tested on: SF-295 CNS
OVCAR-3 ovarian = tested on: OVCAR-3 ovarian
OVCAR-8 ovarian = tested on: OVCAR-8 ovarian
HS 578T breast = tested on: HS 578T breast
SR leukemia = tested on: SR leukemia
NCI/ADR-RES ovarian = tested on: NCI/ADR-RES ovarian
PC-3 prostate = tested on: PC-3 prostate
NCI-H226 lung = tested on: NCI-H226 lung
UO-31 renal = tested on: UO-31 renal
MDA-MB-231 breast = tested on: MDA-MB-231 breast
BT-549 breast = tested on: BT-549 breast
EKVX NSCLC = tested on: EKVX NSCLC
SW-620 colon = tested on: SW-620 colon
SF-268 CNS = tested on: SF-268 CNS
COLO 205 colon = tested on: COLO 205 colon
HOP-62 NSCLC = tested on: HOP-62 NSCLC
NCI-H23 lung = tested on: NCI-H23 lung
HL-60(TB) leukemia = tested on: HL-60(TB) leukemia
IGROV1 ovarian = tested on: IGROV1 ovarian
ACHN renal = tested on: ACHN renal
KM12 colon = tested on: KM12 colon
SNB-75 CNS = tested on: SNB-75 CNS
M14 melanoma = tested on: M14 melanoma
UACC-62 melanoma = tested on: UACC-62 melanoma
CAKI-1 renal = tested on: CAKI-1 renal
RXF 393 renal = tested on: RXF 393 renal
MCF7 breast = tested on: MCF7 breast
HT29 colon = tested on: HT29 colon
SK-MEL-2 melanoma = tested on: SK-MEL-2 melanoma

CC#CC(=O)N[C@H]1CCCN(c2c(F)cc(C(N)=O)c3[nH]c(C)c(C)c23)C1
GI50 (A498 renal): 14.7 µM
TGI (A498 renal): 28.4 µM
GI50 (MDA-MB-435 melanoma): 17.2 µM
TGI (MDA-MB-435 melanoma): 34.1 µM
GI50 (U251 glioblastoma): 17.3 µM
TGI (U251 glioblastoma): 31.4 µM
GI50 (NCI-H522 lung): 4.54 µM
TGI (NCI-H522 lung): 17.5 µM
GI50 (OVCAR-4 ovarian): 13.4 µM
TGI (OVCAR-4 ovarian): 26.6 µM
GI50 (MOLT-4 leukemia): 14 µM
TGI (MOLT-4 leukemia): 27.1 µM
GI50 (TK-10 renal): 21 µM
TGI (TK-10 renal): 58.6 µM
GI50 (SK-OV-3 ovarian): 14.4 µM
TGI (SK-OV-3 ovarian): 34.3 µM
GI50 (K-562 leukemia): 15 µM
TGI (K-562 leukemia): 28.9 µM
GI50 (UACC-257 melanoma): 11.5 µM
TGI (UACC-257 melanoma): 23.7 µM
GI50 (HCT-15 colon): 10.8 µM
TGI (HCT-15 colon): 22.9 µM
GI50 (SN12C renal): 14.9 µM
TGI (SN12C renal): 28.9 µM
GI50 (SK-MEL-28 melanoma): 18.5 µM
TGI (SK-MEL-28 melanoma): 33.1 µM
GI50 (A549 NSCLC): 18.1 µM
TGI (A549 NSCLC): 37.9 µM
GI50 (LOX IMVI melanoma): 15.4 µM
TGI (LOX IMVI melanoma): 28.9 µM
GI50 (NCI-H322M lung): 16.2 µM
TGI (NCI-H322M lung): 30.9 µM
GI50 (NCI-H460 NSCLC): 15.8 µM
TGI (NCI-H460 NSCLC): 29.6 µM
GI50 (SF-539 CNS): 15.3 µM
TGI (SF-539 CNS): 28.8 µM
GI50 (DU-145 prostate): 18.1 µM
TGI (DU-145 prostate): 37.2 µM
GI50 (HOP-92 NSCLC): 15 µM
TGI (HOP-92 NSCLC): 33.7 µM
GI50 ([…]-0 renal): 15.9 µM
TGI (786-0 renal): 33.2 µM
GI50 (MALME-3M melanoma): 18 µM
TGI (MALME-3M melanoma): 32 µM
GI50 (SK-MEL-5 melanoma): 13.8 µM
TGI (SK-MEL-5 melanoma): 26.8 µM
GI50 (MDA-MB-468 breast): 2.88 µM
TGI (MDA-MB-468 breast): 11.1 µM
GI50 (HCT-116 colon): 13.8 µM
TGI (HCT-116 colon): 27.3 µM
GI50 (T-47D breast): 5.36 µM
TGI (T-47D breast): 18.6 µM
GI50 (CCRF-CEM leukemia): 16.9 µM
TGI (CCRF-CEM leukemia): 30.8 µM
GI50 (HCC-2998 colon): 11.1 µM
TGI (HCC-2998 colon): 23.2 µM
GI50 (SNB-19 CNS): 17.3 µM
TGI (SNB-19 CNS): 32.4 µM
GI50 (OVCAR-5 ovarian): 16.9 µM
TGI (OVCAR-5 ovarian): 38.4 µM
GI50 (SF-295 CNS): 13.9 µM
TGI (SF-295 CNS): 26.9 µM
GI50 (OVCAR-3 ovarian): 14.5 µM
TGI (OVCAR-3 ovarian): 28 µM

O=C(Nc1ccc(O)c(NS(=O)(=O)c2ccc(F)cc2)c1)c1ccc(-c2ccccc2)cc1
GI50 (A498 renal): 3.57 µM
TGI (A498 renal): 15.1 µM
GI50 (OVCAR-8 ovarian): 3.73 µM
TGI (OVCAR-8 ovarian): 14.1 µM
GI50 (MDA-MB-435 melanoma): 7.4 µM
TGI (MDA-MB-435 melanoma): 20.2 µM
GI50 (U251 glioblastoma): 5.41 µM
TGI (U251 glioblastoma): 17.1 µM
GI50 (NCI-H522 lung): 2.3 µM
TGI (NCI-H522 lung): 6.5 µM
GI50 (HS 578T breast): 2.93 µM
TGI (HS 578T breast): 15.5 µM
GI50 (SR leukemia): 1.65 µM
TGI (SR leukemia): 3.17 µM
GI50 (OVCAR-4 ovarian): 3.24 µM
TGI (OVCAR-4 ovarian): 14.5 µM
GI50 (NCI/ADR-RES ovarian): 5.28 µM
TGI (NCI/ADR-RES ovarian): 17.5 µM
GI50 (PC-3 prostate): 3.94 µM
TGI (PC-3 prostate): 14.4 µM
GI50 (NCI-H226 lung): 8.98 µM
TGI (NCI-H226 lung): 21.1 µM
GI50 (MOLT-4 leukemia): 1.69 µM
TGI (MOLT-4 leukemia): 3.12 µM
GI50 (UO-31 renal): 5.25 µM
TGI (UO-31 renal): 16.9 µM
GI50 (TK-10 renal): 3.61 µM
TGI (TK-10 renal): 11.8 µM
GI50 (SK-OV-3 ovarian): 6.15 µM
TGI (SK-OV-3 ovarian): 18.4 µM
GI50 (K-562 leukemia): 3.68 µM
TGI (K-562 leukemia): 13.5 µM
GI50 (MDA-MB-231 breast): 3.36 µM
TGI (MDA-MB-231 breast): 13.5 µM
GI50 (BT-549 breast): 4.01 µM
TGI (BT-549 breast): 13.1 µM
GI50 (EKVX NSCLC): 4.13 µM
TGI (EKVX NSCLC): 14 µM
GI50 (SW-620 colon): 10.2 µM
TGI (SW-620 colon): 22 µM
GI50 (UACC-257 melanoma): 7.05 µM
TGI (UACC-257 melanoma): 19.8 µM
GI50 (HCT-15 colon): 3.84 µM
TGI (HCT-15 colon): 11.8 µM
GI50 (SN12C renal): 7.38 µM
TGI (SN12C renal): 19.7 µM
GI50 (SK-MEL-28 melanoma): 11.4 µM
TGI (SK-MEL-28 melanoma): 23.8 µM
GI50 (SF-268 CNS): 4.51 µM
TGI (SF-268 CNS): 15.2 µM
GI50 (A549 NSCLC): 5.05 µM
TGI (A549 NSCLC): 17 µM
GI50 (LOX IMVI melanoma): 3.87 µM
TGI (LOX IMVI melanoma): 15 µM
GI50 (COLO 205 colon): 11.5 µM
TGI (COLO 205 colon): 24 µM
GI50 (HOP-62 NSCLC): 9.69 µM
TGI (HOP-62 NSCLC): 21.4 µM
GI50 (NCI-H322M lung): 4.58 µM
TGI (NCI-H322M lung): 16.6 µM
GI50 (NCI-H460 NSCLC): 2.9 µM
TGI (NCI-H460 NSCLC): 10.3 µM
GI50 (SF-539 CNS): 5.63 µM
TGI (SF-539 CNS): 18.4 µM
GI50 (DU-145 prostate): 10.1 µM
TGI (DU-145 prostate): 21.8 µM
GI50 (NCI-H23 lung): 6.12 µM
TGI (NCI-H23 lung): 18.6 µM
GI50 (HOP-92 NSCLC): 4.12 µM
TGI (HOP-92 NSCLC): 14.4 µM
GI50 ([…]-0 renal): 3.74 µM
TGI (786-0 renal): 12.6 µM
GI50 (MALME-3M melanoma): 4.06 µM
TGI (MALME-3M melanoma): 15.4 µM
GI50 (HL-60(TB) leukemia): 1.55 µM
TGI (HL-60(TB) leukemia): 2.91 µM
GI50 (IGROV1 ovarian): 3.62 µM
TGI (IGROV1 ovarian): 12.2 µM
GI50 (ACHN renal): 6.99 µM
TGI (ACHN renal): 19.7 µM
GI50 (SK-MEL-5 melanoma): 4.13 µM
TGI (SK-MEL-5 melanoma): 15.3 µM
GI50 (MDA-MB-468 breast): 2.08 µM
TGI (MDA-MB-468 breast): 7.66 µM
GI50 (KM12 colon): 5.26 µM
TGI (KM12 colon): 18.3 µM
GI50 (SNB-75 CNS): 9.53 µM
TGI (SNB-75 CNS): 21.2 µM
GI50 (HCT-116 colon): 3.71 µM
TGI (HCT-116 colon): 12.7 µM
GI50 (M14 melanoma): 6.4 µM
TGI (M14 melanoma): 19 µM
GI50 (UACC-62 melanoma): 4.96 µM
TGI (UACC-62 melanoma): 17.6 µM
GI50 (CAKI-1 renal): 5.16 µM
TGI (CAKI-1 renal): 17.7 µM
GI50 (T-47D breast): 8 µM
TGI (T-47D breast): 20.7 µM
GI50 (RXF 393 renal): 1.68 µM
TGI (RXF 393 renal): 4.57 µM
GI50 (MCF7 breast): 3.87 µM
TGI (MCF7 breast): 15.4 µM
GI50 (HT29 colon): 12 µM
TGI (HT29 colon): 24.5 µM
GI50 (CCRF-CEM leukemia): 2.24 µM
TGI (CCRF-CEM leukemia): 4.11 µM
GI50 (HCC-2998 colon): 4.56 µM
TGI (HCC-2998 colon): 10.3 µM
GI50 (SNB-19 CNS): 7.07 µM
TGI (SNB-19 CNS): 19.3 µM
GI50 (OVCAR-5 ovarian): 10.2 µM
TGI (OVCAR-5 ovarian): 21.9 µM
GI50 (SK-MEL-2 melanoma): 10.4 µM
TGI (SK-MEL-2 melanoma): 22.2 µM
GI50 (SF-295 CNS): 10.5 µM
TGI (SF-295 CNS): 22.4 µM
GI50 (OVCAR-3 ovarian): 2.86 µM
TGI (OVCAR-3 ovarian): 10.6 µM
